Counter-ions that a name gives are not always drawn.

The values that follow come from patent publication US20130281397A1, “TREATMENT OF DISEASES BY EPIGENETIC REGULATION” (RVX Therapeutics Inc., priority 2012, published 2013).

The target of one data set is T1, Brd4 bromodomain 1 (Homo sapiens, UniProt O60885).
T1 construct: made in house; host or cells: E. coli BL21(DE3)
In words: Inhibition of binding of tetra-acetylated histone H4 and Brd4 bromodomain 1 by TR-FRET. The following applies: His-tagged bromodomain 200 nM, biotinylated tetra-acetylated histone H4 peptide 25-50 nM, 2 hours at room temperature. How it is done: Proteins were cloned and overexpressed with a N-terminal 6×His tag, then purified by nickel affinity followed by size exclusion chromatography. Briefly, E. coli BL21(DE3) cells were transformed with a recombinant expression vector encoding N-terminally […] tagged bromodomains from Brd2, Brd3, or Brd4. Cell cultures were incubated at 37° C. with shaking to the appropriate density and induced overnight with IPTG. The supernatant of lysed cells was loaded onto Ni-IDA column for purification. Eluted protein was pooled, concentrated and further purified by size exclusion chromatography. Fractions representing monomeric protein were pooled, concentrated, aliquoted, and frozen at −80° C. for use in subsequent experiments.
For inhibition assays, serially diluted test compound was added to these reactions in a 0.2% final concentration of DMSO. Final buffer concentrations were 30 mM HEPES pH 7.4, 30 mM NaCl, 0.3 mM CHAPS, 20 mM phosphate pH 7.0, 320 mM KF, 0.08% BSA). […] The binding inhibitory activity was shown by a decrease in 665 nm fluorescence relative to 620 nm. IC50 values were determined from a dose response curve.
In general terms: In TR-FRET formats the signal depends on donor and acceptor labels being close together.

With `Cc1cc(-c2cc3ncccc3c(=O)[nH]2)cc(C)c1O` (as salt: HCl) [Example 5, 7-(4-hydroxy-3,5-dimethylphenyl)-1,6-naphthyridin-5(6H)-one], the melting point is over 350 °C.
On to `COc1cc(OC)c2c(=O)[nH]c(-c3cc(C)c(O)c(C)c3)cc2n1` (as salt: HCl) [Example 13, 7-(4-hydroxy-3,5-dimethylphenyl)-2,4-dimethoxy-1,6-naphthyridin-5(6H)-one], for which the melting point was over 324 °C.
Same read-out and setting: with `COc1cc(OC)c2c(=O)[nH]c(-c3cc(C)c(OCCN(C)C)c(C)c3)cc2c1` (as salt: hydrochloride) [Example 7, 3-(4-(2-(dimethylamino)ethoxy)-3,5-dimethylphenyl)-6,8-dimethoxyisoquinolin-1(2H)-one] the figure was 261 to 263 °C.
On the same count and under the same terms, then `Cc1cc(-c2cc3ccc(CN4CCOCC4)cc3c(=O)[nH]2)cc(C)c1O` (as salt: hydrochloride) [Example 8, 3-(4-hydroxy-3,5-dimethylphenyl)-7-(morpholinomethyl)isoquinolin-1(2H)-one], with 281 to 283 °C; and `COc1cc(O)nc2cc(-c3cc(C)c(O)c(C)c3)[nH]c(=O)c12` (as salt: hydrochloride) [Example 9, 2-hydroxy-7-(4-hydroxy-3,5-dimethylphenyl)-4-methoxy-1,6-naphthyridin-5(6H)-one], with over 330 °C.
The same measure, in the same setting: then `COc1cc(OC)c2c(=O)[nH]c(-c3cc(C)c(OCCN4CCOCC4)c(C)c3)nc2c1` (as salt: hydrochloride) [Example 17, 2-(3,5-dimethyl-4-(2-morpholinoethoxy)phenyl)-5,7-dimethoxyquinazolin-4(3H)-one], with 185 to 187 °C.
Turning to `COc1cc(OC)c2c(=O)[nH]c(-c3cc(C)c(OCCN4CCN(C)CC4)c(C)c3)cc2c1` (as salt: hydrochloride) [Example 18, 3-(3,5-dimethyl-4-(2-(4-methylpiperazin-1-yl)ethoxy)phenyl)-6,8-dimethoxyisoquinolin-1(2H)-one], the melting point fell in the range of 195 to 198 °C.
On the same count and under the same terms, with `COc1cc(OC)c2c(=O)[nH]c(-c3ccccn3)nc2c1` (as salt: hydrochloride) [Example 21, 5,7-dimethoxy-2-(pyridin-2-yl)quinazolin-4(3H)-one] the figure was 215 to 217 °C; with `COc1cc(OC)c2c(=O)[nH]c(-c3cccnc3)nc2c1` (as salt: hydrochloride) [Example 22, 5,7-dimethoxy-2-(pyridin-3-yl)quinazolin-4(3H)-one], 257 to 259 °C; with `COc1cc(OC)c2c(=O)[nH]c(-c3ccncc3)nc2c1` (as salt: hydrochloride) [Example 28, 5,7-dimethoxy-2-(pyridin-4-yl)quinazolin-4(3H)-one], 294 to 295 °C.
Same read-out and setting: then `Cc1cc(-c2nc3ccccc3c(=O)[nH]2)cc(C)c1OCCN1CCOCC1` (as salt: hydrochloride) [Example 29, 2-(3,5-dimethyl-4-(2-morpholinoethoxy)phenyl)quinazolin-4(3H)-one], with 300 to 302 °C; and `COc1cc(OC)c2c(=O)[nH]c(-c3ccc(CN4CCN(C)CC4)cc3)nc2c1` (as salt: hydrochloride) [Example 54, 5,7-dimethoxy-2-(4-((4-methylpiperazin-1-yl)methyl)phenyl)quinazolin-4(3H)-one], with 275 to 277 °C; and `Cc1cc(-c2nc3ccc(CN4CCOCC4)cc3c(=O)[nH]2)cc(C)c1O` (as salt: hydrochloride) [Example 57, 2-(4-hydroxy-3,5-dimethylphenyl)-6-(morpholinomethyl)quinazolin-4(3H)-one], with 284 to 286 °C.
The same measure, in the same setting: with `COc1cc(OC)c2c(=O)[nH]c(-c3ccc(CN4CCOCC4)cc3)nc2c1` (as salt: hydrochloride) [Example 61, 5,7-dimethoxy-2-(4-(morpholinomethyl)phenyl)quinazolin-4(3H)-one] the figure was 206 to 208 °C (dec.); with `CCN1CCN(Cc2ccc(-c3nc4cc(OC)cc(OC)c4c(=O)[nH]3)cc2)CC1` (as salt: hydrochloride) [Example 62, 2-(4-((4-ethylpiperazin-1-yl)methyl)phenyl)-5,7-dimethoxyquinazolin-4(3H)-one], 278 to 280 °C (dec.).
In turn, `O=c1[nH]c(-c2ccc(O)cc2)cc2ccccc12` [Example 1, 3-(4-Hydroxyphenyl)-2H-isoquinolin-1-one] yielded a melting point of 239 to 241 °C. For the same molecule, at Brd4 bromodomain 1, the “FRET activity (<50 uM)” value was “Active”.
Molecule `COc1cc(OC)c2c(=O)[nH]c(-c3ccc(O)cc3)cc2c1` [Example 3, 3-(4-hydroxyphenyl)-6,8-dimethoxyisoquinolin-1(2H)-one] had a melting point of 245 to 247 °C. For the same molecule, the “FRET activity (<50 uM)” value on Brd4 bromodomain 1 is listed as “Active”.
Taken in the same sequence, the figures for `COc1cc(OC)c2c(=O)[nH]c(-c3cc(C)c(OCC(C)(C)O)c(C)c3)cc2c1` [Example 11, 3-(4-(2-hydroxy-2-methylpropoxy)-3,5-dimethylphenyl)-6,8-dimethoxyisoquinolin-1(2H)-one] were 252 to 254 °C and “Active”.
Taken in the same sequence, the figures for `COc1cc2c(c(OC)c1)S(=O)(=O)NC(c1cc(C)c(O)c(C)c1)=C2` [Example 12, 6,8-dimethoxy-3-(4-hydroxy-3,5-dimethylphenyl)-2H-1,2-benzothiazine-1,1-dioxide] were 246.6 to 247.4 °C and “Active”.
Regarding `COc1cc2cc(-c3cc(C)c(O)c(C)c3)n(C)c(=O)c2c(OC)c1C` [Example 14 (left), 3-(4-hydroxy-3,5-dimethylphenyl)-6,8-dimethoxy-2,7-dimethylisoquinolin-1(2H)-one], the melting point is 246 to 248 °C.
In turn, `COc1cc(OC)c2c(=O)[nH]c(-c3cc(C(C)(C)C)c(O)c(C(C)(C)C)c3)nc2c1` [Example 23, 2-(3,5-di-tert-butyl-4-hydroxyphenyl)-5,7-dimethoxyquinazolin-4(3H)-one] showed a melting point of 229.7 to 230.5 °C. Also, the “FRET activity (<50 uM)” value at Brd4 bromodomain 1 is recorded as “Inactive”.
The matching figures for `COc1cc(OC)cc(-c2nc3cc(OC)cc(OC)c3c(=O)[nH]2)c1` [Example 24, 2-(3,5-dimethoxyphenyl)-5,7-dimethoxyquinazolin-4(3H)-one]: 270 to 272 °C and “Inactive”.
For the molecule `COc1ccc(-c2nc3cc(OC)cc(OC)c3c(=O)[nH]2)cc1` [Example 25, 5,7-dimethoxy-2-(4-methoxyphenyl)quinazolin-4(3H)-one], the melting point lay in the range of 276 to 277 °C. Also, on Brd4 bromodomain 1, the “FRET activity (<50 uM)” value is “Inactive”.
Taken in the same sequence, the figures for `COc1cc(OC)c2c(=O)[nH]c(-c3ccc(O)c(OC)c3)nc2c1` [Example 26, 2-(4-hydroxy-3-methoxyphenyl)-5,7-dimethoxyquinazolin-4(3H)-one] were 294 to 296 °C and “Active”.
Taken in the same sequence, the figures for `COc1cc(OC)c2c(=O)[nH]c(-c3ccc(O)c(Cl)c3)nc2c1` [Example 27, 2-(3-chloro-4-hydroxyphenyl)-5,7-dimethoxyquinazolin-4(3H)-one] were 279 to 281 °C and “Active”.
Regarding `Cc1cc(-c2nc3ccccc3c(=O)[nH]2)cc(C)c1OCCO` [Example 30, 2-(4-(2-hydroxyethoxy)-3,5-dimethylphenyl)quinazolin-4(3H)-one], the melting point was 260 to 261 °C. The “FRET activity (<50 uM)” value at Brd4 bromodomain 1 was “Inactive”.
In turn, `COc1cc2nc(-c3ccc(N(C)C)c4ccccc34)[nH]c(=O)c2cc1OC` [Example 39] came in with a melting point of 235.5 to 236.5 °C.
In the case of `COc1cc2nc(-c3ccc(N(CCO)CCO)cc3)[nH]c(=O)c2cc1OC` [Example 42, 2-(4-(bis(2-hydroxyethyl)amino)phenyl)-6,7-dimethoxyquinazolin-4(3H)-one], the melting point lay in the range of 268 to 270 °C.
Still for that read-out and setting: then `COc1cc(OC)c2c(=O)[nH]c(-c3ccc(OCCO)c(OC)c3)nc2c1` [Example 52, 2-(4-(2-hydroxyethoxy)-3-methoxyphenyl)-5,7-dimethoxyquinazolin-4(3H)-one], with 246 to 248 °C; and `COc1cc(OC)c2c(=O)[nH]c(-c3cc(C)c(OCCO)c(C)c3)cc2n1` [Example 56, 7-(4-(2-hydroxyethoxy)-3,5-dimethylphenyl)-2,4-dimethoxy-1,6-naphthyridin-5(6H)-one], with 224.9 to 225.4 °C.
For the molecule `COc1ccc(NC(=O)NCCOc2c(C)cc(-c3nc4cc(OC)cc(OC)c4c(=O)[nH]3)cc2C)cc1` [Example 110, 1-(2-(4-(5,7-dimethoxy-4-oxo-3,4-dihydroquinazolin-2-yl)-2,6-dimethylphenoxy)ethyl)-3-(4-methoxyphenyl)urea], the “FRET activity (<50 uM)” value at Brd4 bromodomain 1 is reported as “Inactive”.
Still for that read-out and setting: with `COc1cc(OC)c2c(=O)[nH]c(-c3cc(C)c(OCCNC(=O)Nc4ccccc4)c(C)c3)nc2c1` [Example 111, 1-(2-(4-(5,7-dimethoxy-4-oxo-3,4-dihydroquinazolin-2-yl)-2,6-dimethylphenoxy)ethyl)-3-phenylurea] the entry was “Active”; with `COc1cc(OC)c2c(=O)[nH]c(-c3cc(C)c(OCCNC(=O)N(C)C)c(C)c3)nc2c1` [Example 112, 3-(2-(4-(5,7-dimethoxy-4-oxo-3,4-dihydroquinazolin-2-yl)-2,6-dimethylphenoxy)ethyl)-1,1-dimethylurea], “Active”.

The melting point is the temperature of the solid-liquid transition.
